Laboratory results published in ChEMBL document CHEMBL4616724, “Topoisomerase Inhibitors Addressing Fluoroquinolone Resistance in Gram-Negative Bacteria” (J Med Chem, 2020).
≈ marks a conversion by molar mass, not a printed value.

Tests used:
[1] = Inhibition of recombinant full-length C-terminal His6-tagged Escherichia coli DNA topoisomerase 4 subunit ParC/ParE using kinetoplast DNA as substrate preincubated for 30 mins followed by substrate addition and measured after 1 hr in presence of ATP by size exclusion chromatography
Escherichia coli [2] = test: Antibacterial activity against Escherichia coli BW25113/JW0451-2 harboring AcrB deletion mutant by CLSI-based broth microdilution assay; type: functional
HepG2 = test: Cytotoxicity against human HepG2 cells assessed as reduction in cell viability after 72 hrs by Cell-titer Glo assay; type: cell-based; settings: HepG2, 72 h
[3] = Dark toxicity in BALB/c mouse 3T3 cells assessed as reduction in cell viability incubated for 1 hr prior to 50 mins incubation under dark condition followed by replacement of medium and measured after 24 hrs by neutral red uptake assay; type: cell-based, NIH3T3; settings: BALB/c 3T3 cells
[4] = Clearance in rat at 5 mg/kg, iv or 10 mg/kg, po measured up to 24 hrs by LC-MS/MS analysis; type: ADME, organism-based; settings: in vivo
[5] = Terminal half life in rat at 5 mg/kg, iv measured up to 24 hrs by LC-MS/MS analysis; type: ADME, organism-based; settings: in vivo, read-out: beta t1/2 (converted)
[6] = Dose normalized AUC in rat at 10 mg/kg, po measured up to 24 hrs by LC-MS/MS analysis; type: ADME, organism-based; settings: in vivo
[7] = Oral bioavailability in rat at 10 mg/kg measured up to 24 hrs by LC-MS/MS analysis; type: ADME, organism-based; settings: in vivo
[8] = Clearance in mouse at 5 mg/kg, iv or po measured up to 24 hrs by LC-MS/MS analysis; type: ADME, organism-based; settings: in vivo
[9] = Volume of distribution at steady state in mouse at 5 mg/kg, iv or po measured up to 24 hrs by LC-MS/MS analysis; type: ADME, organism-based; settings: in vivo, read-out: Vdss
[10] = Terminal half life in mouse at 5 mg/kg, iv measured up to 24 hrs by LC-MS/MS analysis; type: ADME, organism-based; settings: in vivo, read-out: beta t1/2 (converted)
[11] = Oral bioavailability in mouse at 5 mg/kg measured up to 24 hrs by LC-MS/MS analysis; type: ADME, organism-based; settings: in vivo
Escherichia coli [12] = test: Antibacterial activity against Escherichia coli ATCC 25922 infected in mouse model of neutropenic thigh infection compound administered subcutaneously 2 hrs post infection and measured after 24 hrs by serial dilution method; type: functional

## Cc1c(N2CC3CC3(N)C2)c(F)cc2c(CN)c(F)c(=O)n(C3CC3)c12 (stereo not drawn)
[1]
  IC50: 0.81 µM
Escherichia coli [2]
  MIC: ≤ 0.03 µg/mL
HepG2
  EC50: 82 µM
[3]
  IC50 at 110 min: 1000 µM
[4]
  clearance: 71 mL/min/kg
[5]
  half-life: 8.2 h
[6]
  AUC/dose: 0.1 µM·h/mg/kg
[7]
  bioavailability: 15%
[8]
  clearance: 50 mL/min/kg
[9]
  Vd: 5.1 L/kg
[10]
  half-life: 1.7 h
[11]
  bioavailability: 36%
Escherichia coli [12]
  MIC: 0.06 µg/mL (≈ 0.166 µM)
